Experimental data published in patent publication US8729097B2, “Quinoline compounds as inhibitors of angiogenesis, human methionine aminopeptidase, and SIRT1, and methods of treating disorders” (The Johns Hopkins University, priority 2008, dated 2014).
Read-outs that look alike come from different tables or passages of the source. Values belong to the compound of their own block, whether it stands above or below them.

How the values were obtained:
hMetAP2 = biological target: T1, hMetAP2 (Homo sapiens, UniProt P50579); assay: MetAP enzymatic assay, hMetAP2; assay type: biochemical
T1 construct: made in house
T1 sequence (P50579 whole entry): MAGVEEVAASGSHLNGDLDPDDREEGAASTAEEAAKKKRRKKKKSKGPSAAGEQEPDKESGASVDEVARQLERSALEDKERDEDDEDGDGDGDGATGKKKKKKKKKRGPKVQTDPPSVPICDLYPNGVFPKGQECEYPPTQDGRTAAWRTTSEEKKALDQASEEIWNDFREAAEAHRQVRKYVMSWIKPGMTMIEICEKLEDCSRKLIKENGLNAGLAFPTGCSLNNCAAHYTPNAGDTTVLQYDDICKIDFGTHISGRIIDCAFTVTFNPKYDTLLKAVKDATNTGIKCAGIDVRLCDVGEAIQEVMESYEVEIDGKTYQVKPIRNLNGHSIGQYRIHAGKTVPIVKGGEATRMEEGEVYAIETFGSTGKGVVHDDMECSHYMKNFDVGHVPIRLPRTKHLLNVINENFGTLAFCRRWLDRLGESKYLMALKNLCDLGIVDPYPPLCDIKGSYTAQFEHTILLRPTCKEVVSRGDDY

hMetAP1 = biological target: T2, hMetAP1 (Homo sapiens, UniProt P53582); assay: MetAP enzymatic assay, hMetAP1; assay type: biochemical
T2 construct: made in house

HUVEC = HUVEC proliferation, [3H]-thymidine incorporation assay; assay type: cell-based, human
Description: HCC1954 cells were grown in RPMI1640 containing 10% FBS. HUVEC were grown using the EGM-2 bullet kit (Cambrex) as per manufacturer's instructions. The cells were maintained in a humidified incubator adjusted to 5% CO2. For drug screening, 10 mM stock solutions of Johns Hopkins Drug Library were arrayed in 96-well plates and screened at a final concentration of 10 μM. The cell growth was determined using a [^3H]-thymidine incorporation assay. Cells (typically 5,000 cells/well) were seeded in 96-well plates containing 0.2 ml of growth media and allowed to adhere for 24 h. The cells were then treated with drugs for 24 h. Cells were pulsed with 1 μCi [^3H]-thymidine (MP Biomedicals, 6.7 Ci mmol^−1) for 8 h and harvested, upon trypsin treatment, onto glass fiber filters (Wallac, Turku, Finland), from which ^3H counts were determined using a Perkin Elmer MicroBeta plate reader.

HFF = HFF proliferation (selectivity); assay type: cell-based
[1] = system: acetylation of p53 (K382), α-tubulin and histone-H3; assay: Acetylation status of sirtuin substrates in HUVEC (Western blot); assay type: cell-based, human; details: HUVEC
Description: Cells were lysed by adding 1 volume of 2× Laemmli buffer and were then boiled for 5 min. The samples were separated by SDS-PAGE and transferred to nitrocellulose membrane (Bio-Rad). Proteins were detected using primary antibodies for p53 (Santa Cruz), met-14-3-3γ (Novus), p21 (Santa Cruz), Rb (Santa Cruz), MetAP2 (Hu, X. et al (2006) Proc. Natl. Acad. Sci. U.S.A. 103, 18148-18153), SirT1 (Santa Cruz), acetyl-p53-K382 (Abeam), acetyl-tubulin (Sigma), histone-H3 (Santa Cruz), acetyl-H3 (Santa Cruz) and α-tubulin (TU-02, Santa Cruz) followed by the incubation with horseradish peroxidase (HRP)-conjugated anti-mouse or anti-rabbit antibodies (Santa Cruz) and enhanced chemiluminescence (ECL, Amersham).

[2] = Table 2, in the presence of Co^2+, read-out: hMetAP2 Co^2+ IC50
[3] = Table 2, in the presence of Co^2+, read-out: hMetAP1 Co^2+ IC50
[4] = Table 2, in the presence of Mn^2+, read-out: hMetAP1 Mn^2+ IC50
[5] = Table 3, in the presence of Co^2+, read-out: hMetAP2 Co^2+ IC50
[6] = Table 3, in the presence of Mn^2+, read-out: hMetAP2 Mn^2+ IC50
[7] = Table 3, in the presence of Co^2+, read-out: hMetAP1 Co^2+ IC50
[8] = Table 3, in the presence of Mn^2+, read-out: hMetAP1 Mn^2+ IC50
[9] = Table 3, read-out: Selectivity HUVEC IC50

- IC50 (hMetAP2; [2]): > 50 µM
- IC50 (hMetAP2; Table 2, in the presence of Mn^2+, read-out: hMetAP2 Mn^2+ IC50): 2.8 µM
- IC50 (hMetAP1; [3]): > 50 µM
- IC50 (hMetAP1; [4]): > 50 µM
- melting point: 126 °C
SMILES: Oc1c(C(Nc2nccs2)c2ccco2)cc(Cl)c2cccnc12 (centres unmarked) [Entry 2g, 5-Chloro-7-(1-(2-furyl)-1-(2-thiazolylamino)-methyl)-8-hydroxy-quinoline]
- IC50 (HUVEC; Homo sapiens, HUVEC, Table 2, read-out: Selectivity HUVEC IC50): 2.5 µM
- IC50 (HFF; Homo sapiens, HFF, Table 2): 13.5 µM

- IC50 (hMetAP2; [5]): > 50 µM
- IC50 (hMetAP2; [6]): 1.6 µM
- IC50 (hMetAP1; [7]): > 50 µM
- IC50 (hMetAP1; [8]): > 50 µM
SMILES: O=C(Nc1ccccc1)Oc1c(Cl)cc(Cl)c2cccnc12 [Entry 4d, 5,7-Dichloro-8-quinolyl-N-phenylcarbamate]
- IC50 (HFF; Table 3): 15.3 µM

SMILES: CC(/C=C/C(=O)NO)=C\[C@@H](C)C(=O)c1ccc(N(C)C)cc1 [TSA]
- acetylation status of tubulin or histone-H3 ([1]; 6 h or 20 h): induced hyper-acetylation
- p53 acetylation ([1]; early time point): increased p53 acetylation

- IC50 (hMetAP2; [5]): > 50 µM
- IC50 (hMetAP2; [6]): 0.9 µM
- IC50 (hMetAP1; [7]): > 50 µM
- IC50 (hMetAP1; [8]): > 50 µM
SMILES: O=C(Nc1cc(Cl)cc(Cl)c1)Oc1c(Cl)cc(Cl)c2cccnc12 [Entry 4b, 5,7-Dichloro-8-quinolyl-N-(3,5-dichlorophenyl)-carbamate]
- IC50 (HUVEC; [9]): 0.11 µM
- IC50 (HFF; Table 3): 3 µM

- IC50 (hMetAP2; [5]): 2.2 µM
- IC50 (hMetAP2; [6]): 0.07 µM
- IC50 (hMetAP1; [7]): > 50 µM
- IC50 (hMetAP1; [8]): 12.6 µM
SMILES: O=C(Nc1cc(Cl)cc(Cl)c1)Oc1ccc(Cl)c2cccnc12 [Entry 4c, 5-Chloro-8-quinolyl-N-(3,5-dichlorophenyl)-carbamate]
- IC50 (HUVEC; [9]): 1.2 µM
- IC50 (HFF; Table 3): 8 µM

SMILES: O=C(NCCCl)Oc1c(Cl)cc(Cl)c2cccnc12 [Entry 4i, 5,7-Dichloro-8-quinolyl-N-(2-chloroethyl)-carbamate]
- IC50 (hMetAP1; [7]): > 50 µM
- IC50 (hMetAP1; [8]): > 50 µM
- IC50 (HUVEC; [9]): 2.4 µM
- IC50 (HFF; Table 3): 11.1 µM

- melting point: 89 °C
SMILES: Oc1c(C(c2ccccc2)N2CCOCC2)cc(Cl)c2cccnc12 (centres unmarked) [Entry 2f, 5-Chloro-7-(1-phenyl-1-(N-morpholino)-methyl)-8-hydroxy-quinoline]

SMILES: CC(C)(C)OC(=O)Oc1ccc([N+](=O)[O-])c2cccnc12 [Entry 5c, 5-Nitro-8-tert-butoxycarbonyloxyquinoline]
- IC50 (HUVEC; Homo sapiens, HUVEC, Table 4, read-out: HUVEC IC50): 0.29 µM

SMILES: Oc1cccc2cccnc12 [Entry 1a]
- IC50 (hMetAP2; hMetAP2 Co^2+ IC50, Table 2, in the presence of Co^2+): > 50 µM
- IC50 (hMetAP2; hMetAP2 Mn^2+ IC50, Table 2, in the presence of Mn^2+): 2 µM
- IC50 (hMetAP1; read-out: hMetAP1 Co^2+ IC50, Table 2, in the presence of Co^2+): > 50 µM
- IC50 (HUVEC; Homo sapiens, HUVEC, read-out: Selectivity HUVEC IC50): 6.2 µM
- IC50 (HFF; Homo sapiens, HFF, Table 2): 6.6 µM

- IC50 (hMetAP2; [2]): > 50 µM
- IC50 (hMetAP1; [3]): > 50 µM
- IC50 (hMetAP1; [4]): > 50 µM
SMILES: OCCN(CCO)Cc1cc(Cl)c2cccnc2c1O [Entry 2a, 5-Chloro-7-(N,N-bis(2-hydroxyethyl)aminomethyl)-8-hydroxy-quinoline]

SMILES: NC(=O)COc1ccc([N+](=O)[O-])c2cccnc12 [Entry 5e, 1-(5-Nitro-quinolin-8-yloxy)-acetamide]
- IC50 (HUVEC; Table 4, read-out: HUVEC IC50): 6.3 µM
